The values below come from patent US20240400591A1 (Jacobio Pharmaceuticals Co., Ltd., priority 2021, published 2024).

The test concerns the target T1, His-p53 Y220C (94-294) protein (Homo sapiens, UniProt P04637, Y220C).
T1 construct: His-p53 Y220C (94-294) protein
Kind of test: In vitro DNA binding assay (HTRF). The note with it: % activation normalized to 2 μM Ref-1a high control. The class given is biochemical. For orientation: In TR-FRET formats the signal depends on donor and acceptor labels being close together.
As a reminder, the EC50 is the concentration that produces a half-maximal response. The low end stands for a more potent agent, the high end for a less potent agent. `CCP(=O)(CC)c1ccc(NCC#Cc2sc3c(NC4CCN(C)CC4F)cccc3c2CC(F)(F)F)c(OC)c1` (centres unmarked) [Example 35, diethyl(4-((3-(7-(((Z)-3-fluoro-1-methylpiperidin-4-yl)amino)-3-(2,2,2-trifluoroethyl)benzo[b]thiophen-2-yl)prop-2-yn-1-yl)amino)-3-methoxyphenyl)phosphine oxide] returned a concentration for a half-maximal effect (EC50) of 38 nM.

Turning to `CN1CCC(Nc2cccc3c(CC(F)(F)F)c(C#CCNc4cccc5cc[nH]c45)sc23)CC1` [Example 29, N-(3-(7-((1-methylpiperidin-4-yl)amino)-3-(2,2,2-trifluoroethyl)benzo[b]thiophen-2-yl)prop-2-yn-1-yl)-1H-indol-7-amine], the response was half-maximal at 6400 nM (EC50).

`C[C@H](C#Cc1sc2c(NC3CCN(C)CC3)cccc2c1CC(F)(F)F)Nc1ccc(S(N)(=O)=O)cc1` [Example 44, (R)-4-((4-(7-((1-methylpiperidin-4-yl)amino)-3-(2,2,2-trifluoroethyl)benzo[b]thiophen-2-yl)but-3-yn-2-yl)amino)benzenesulfonamide] yielded an EC50 of 2910 nM.

On to `COc1cc(C(=O)N2CCS(=O)(=O)CC2)ccc1NCC#Cc1sc2c(N[C@H]3CCN(C)C[C@H]3F)cccc2c1CC(F)(F)F` (racemic) [Example 48, (1,1-dioxidothiomorpholino)(4-((3-(7-(((3R,4S)-3-fluoro-1-methylpiperidin-4-yl)amino)-3-(2,2,2-trifluoroethyl)benzo[b]thiophen-2-yl)prop-2-yn-1-yl)amino)-3-methoxyphenyl)methanone], for which a half-maximal response (EC50) required 84 nM.

As for `COc1cc(P(C)(C)=O)ccc1NCC#Cc1sc2c(NC3CCN(C)CC3)ccnc2c1CC(F)(F)F` [Example 71, (3-methoxy-4-((3-(7-((1-methylpiperidin-4-yl)amino)-3-(2,2,2-trifluoroethyl)thieno[3,2-b]pyridin-2-yl)prop-2-yn-1-yl)amino)phenyl)dimethylphosphine oxide], the EC50 amounted to 1030 nM.

For the compound `COc1cc(P(C)(C)=O)ccc1NCC#Cc1sc2c(NC3CCN(C)CC3F)cccc2c1CC#N` (centres unmarked) [Example 133, 2-(2-(3-((4-(dimethylphosphoryl)-2-methoxyphenyl)amino)prop-1-yn-1-yl)-7-(((E)-3-fluoro-1-methylpiperidin-4-yl)amino)benzo[b]thiophen-3-yl)acetonitrile], the midpoint of the response, the EC50, lay at 311 nM. This EC50 lies about 3.3-fold lower than the previous one.

The compound `CN1CC[C@H](Nc2cccc3c(CC(F)(F)F)c(C#CCNc4ccc(P(C)(C)=O)cc4OC(F)(F)F)sc23)[C@H](F)C1` [Example 137, (4-((3-(7-(((3R,4S)-3-fluoro-1-methylpiperidin-4-yl)amino)-3-(2,2,2-trifluoroethyl)benzo[b]thiophen-2-yl)prop-2-yn-1-yl)amino)-3-(trifluoromethoxy)phenyl)dimethylphosphine oxide] showed an EC50 of 78 nM.

As for `CN1CCC(Nc2cccc3c(CC(F)(F)F)c(C#CCNc4ccc(S(C)(=O)=O)cc4OCC(F)F)sc23)CC1` [Example 12, N-(2-(3-((2-(2,2-difluoroethoxy)-4-(methylsulfonyl)phenyl)amino)prop-1-yn-1-yl)-3-(2,2,2-trifluoroethyl)benzo[b]thiophen-7-yl)-1-methylpiperidin-4-amine], the EC50 came out at 141 nM.

`CN1CCC(Nc2cccc3c(CC(F)(F)F)c(C#CCNc4ccc(S(C)(=O)=O)c5cc[nH]c45)sc23)CC1` [Example 31, N-(3-(7-((1-methylpiperidin-4-yl)amino)-3-(2,2,2-trifluoroethyl)benzo[b]thiophen-2-yl)prop-2-yn-1-yl)-4-(methylsulfonyl)-1H-indol-7-amine] showed an EC50 of 535 nM.

`COc1cc(S(C)(=O)=O)ccc1NCC#Cc1sc2c(NC3CCNCC3)cccc2c1CC(F)(F)F` [Example 38, N-(2-(3-((2-methoxy-4-(methylsulfonyl)phenyl)amino)prop-1-yn-1-yl)-3-(2,2,2-trifluoroethyl)benzo[b]thiophen-7-yl)piperidin-4-amine] displayed an EC50 of 194 nM.

Compound `COc1cc(P(C)(C)=O)ccc1NCC#Cc1sc2c(NCC34CCCN3CCC4)cccc2c1CC(F)(F)F` [Example 54, (3-methoxy-4-((3-(7-(((tetrahydro-1H-pyrrolizin-7a(5H)-yl)methyl)amino)-3-(2,2,2-trifluoroethyl)benzo[b]thiophen-2-yl)prop-2-yn-1-yl)amino)phenyl)dimethylphosphine oxide] had an EC50 of 224 nM.

Take `CNC(=O)c1ccc(NCC#Cc2sc3c(NC4CCN(C)CC4)cccc3c2CC(F)(F)F)c(OC)c1` [Example 8, 3-methoxy-N-methyl-4-((3-(7-((1-methylpiperidin-4-yl)amino)-3-(2,2,2-trifluoroethyl)benzo[b]thiophen-2-yl)prop-2-yn-1-yl)amino)benzamide]: the EC50 came out at 112 nM.

The compound `COc1nc(P(C)(C)=O)ccc1NCC#Cc1sc2c(N[C@@H]3CCN(C4CCOCC4)C[C@@H]3F)cccc2c1CC(F)(F)F` [Example 179, (5-((3-(7-(((3S,4R)-3-fluoro-1-(tetrahydro-2H-pyran-4-yl)piperidin-4-yl)amino)-3-(2,2,2-trifluoroethyl)benzo[b]thiophen-2-yl)prop-2-yn-1-yl)amino)-6-methoxypyridin-2-yl)dimethylphosphine oxide] displayed an EC50 of 134 nM.

`CN1CCC(Nc2cccc3c(CC(F)(F)F)c(C#CCNc4ccc(S(N)(=O)=O)cc4)sc23)CC1` [Example 4, 4-((3-(7-((1-methylpiperidin-4-yl)amino)-3-(2,2,2-trifluoroethyl)benzo[b]thiophen-2-yl)prop-2-yn-1-yl)amino) benzenesulfonamide] came in with an EC50 of 99 nM.

As to `COc1nc(P(C)(C)=O)cnc1NCC#Cc1sc2c(N[C@@H]3CCN(C)C[C@@H]3F)cccc2c1CC(F)(F)F` [Example 209, (5-((3-(7-(((3S,4R)-3-fluoro-1-methylpiperidin-4-yl)amino)-3-(2,2,2-trifluoroethyl)benzo[b]thiophen-2-yl)prop-2-yn-1-yl)amino)-6-methoxypyrazin-2-yl)dimethylphosphine oxide], the EC50 stood at 211 nM.

`COc1cc(S(C)(=O)=O)ccc1NCC#Cc1sc2c(NC3CC4CCC(C3)N4C)cccc2c1CC(F)(F)F` (centres unmarked) [Example 26, N-(2-(3-((2-methoxy-4-(methylsulfonyl)phenyl)amino)prop-1-yn-1-yl)-3-(2,2,2-trifluoroethyl)benzo[b]thiophen-7-yl)-8-methyl-8-azabicyclo[3.2.1]octan-3-amine] showed an EC50 of 169 nM.

In turn, `COc1cc(S(C)(=O)=O)ccc1NCC#Cc1sc2c(NCC3CCN(C)CC3)cccc2c1CC(F)(F)F` [Example 56, 2-(3-((2-methoxy-4-(methylsulfonyl)phenyl)amino)prop-1-yn-1-yl)-N-((1-methylpiperidin-4-yl)methyl)-3-(2,2,2-trifluoroethyl)benzo[b]thiophen-7-amine] yielded an EC50 of 284 nM.

`COc1cc(S(=O)(=O)NCC(O)CO)ccc1NCC#Cc1sc2c(NC3CCN(C)CC3)cccc2c1CC(F)(F)F` (centres unmarked) [Example 24, N-(2,3-dihydroxypropyl)-3-methoxy-4-((3-(7-((1-methylpiperidin-4-yl)amino)-3-(2,2,2-trifluoroethyl)benzo[b]thiophen-2-yl)prop-2-yn-1-yl)amino)benzenesulfonamide] had an EC50 of 56 nM.

For `COc1cc(S(C)(=O)=O)ccc1NCC#Cc1sc2c(NC3CC4(CCN(C)CC4)C3)cccc2c1CC(F)(F)F` [Example 33, N-(2-(3-((2-methoxy-4-(methylsulfonyl)phenyl)amino)prop-1-yn-1-yl)-3-(2,2,2-trifluoroethyl)benzo[b]thiophen-7-yl)-7-methyl-7-azaspiro[3.5]nonan-2-amine], the EC50 was 621 nM.

Regarding `COc1cc(S(C)(=O)=O)ccc1NCC#Cc1sc2c(NC3CCC(N(C)C)CC3)cccc2c1CC(F)(F)F` (centres unmarked) [Example 16, N1-(2-(3-((2-methoxy-4-(methylsulfonyl)phenyl)amino)prop-1-yn-1-yl)-3-(2,2,2-trifluoroethyl)benzo[b]thiophen-7-yl)-N4,N4-dimethylcyclohexane-1,4-diamine], it took 124 nM to reach a half-maximal effect (EC50).

The compound `COc1cc(S(C)(=O)=O)ccc1NCC#Cc1sc2c(NC3CCN(C)CC3)ccc(F)c2c1CC(F)(F)F` [Example 51, N-(4-fluoro-2-(3-((2-methoxy-4-(methylsulfonyl)phenyl)amino)prop-1-yn-1-yl)-3-(2,2,2-trifluoroethyl)benzo[b]thiophen-7-yl)-1-methylpiperidin-4-amine] registered a concentration giving a half-maximal response (EC50) of 479 nM. Against the preceding compound, the EC50 is about 3.9-fold higher.

Compound `COc1cc(S(=O)(=O)N(C)C)ccc1NCC#Cc1sc2c(NC3CCN(C)CC3)cccc2c1CC(F)(F)F` [Example 21, 3-methoxy-N,N-dimethyl-4-((3-(7-((1-methylpiperidin-4-yl)amino)-3-(2,2,2-trifluoroethyl)benzo[b]thiophen-2-yl)prop-2-yn-1-yl)amino)benzenesulfonamide] displayed an EC50 of 341 nM.

The compound `C[C@@H](C#Cc1sc2c(NC3CCN(C)CC3)cccc2c1CC(F)(F)F)Nc1ccc(S(N)(=O)=O)cc1` [Example 45, (S)-4-((4-(7-((1-methylpiperidin-4-yl)amino)-3-(2,2,2-trifluoroethyl)benzo[b]thiophen-2-yl)but-3-yn-2-yl)amino)benzenesulfonamide] came in with an EC50 of 2790 nM.

The compound `CCc1c(C#CCNc2ccc(S(N)(=O)=O)cc2)sc2c(NC3CCN(C)CC3)cccc12` [Example 1, 4-((3-(3-ethyl-7-((1-methylpiperidin-4-yl)amino)benzo[b]thiophen-2-yl)prop-2-yn-1-yl)amino)benzenesulfonamide] registered an EC50 of 345 nM.

In turn, `CN1CC[C@@H](Nc2cccc3c(CC(F)(F)F)c(C#CCNc4ccc(P(C)(C)=O)c5c4OC(F)(F)O5)sc23)[C@@H](F)C1` [Example 164, (2,2-difluoro-7-((3-(7-(((3S,4R)-3-fluoro-1-methylpiperidin-4-yl)amino)-3-(2,2,2-trifluoroethyl)benzo[b]thiophen-2-yl)prop-2-yn-1-yl)amino)benzo[d][1,3]dioxol-4-yl)dimethylphosphine oxide] came in with an EC50 of 120 nM.

Compound `COc1cc(S(C)(=O)=O)ccc1NCC#Cc1sc2c(NC3C4CNCC3CNC4)cccc2c1CC(F)(F)F` (centres unmarked) [Example 78, N-(2-(3-((2-methoxy-4-(methylsulfonyl)phenyl)amino)prop-1-yn-1-yl)-3-(2,2,2-trifluoroethyl)benzo[b]thiophen-7-yl)-3,7-diazabicyclo[3.3.1]nonan-9-amine] showed an EC50 of 134 nM.
